Measured values published in paper PMC2219267 (The Journal of General Physiology, 1996).
Where two headings read alike, the source gives them in different places.

Biological target: T1, band 3 (Homo sapiens, UniProt P02730)
T1 sequence (P02730 1-911): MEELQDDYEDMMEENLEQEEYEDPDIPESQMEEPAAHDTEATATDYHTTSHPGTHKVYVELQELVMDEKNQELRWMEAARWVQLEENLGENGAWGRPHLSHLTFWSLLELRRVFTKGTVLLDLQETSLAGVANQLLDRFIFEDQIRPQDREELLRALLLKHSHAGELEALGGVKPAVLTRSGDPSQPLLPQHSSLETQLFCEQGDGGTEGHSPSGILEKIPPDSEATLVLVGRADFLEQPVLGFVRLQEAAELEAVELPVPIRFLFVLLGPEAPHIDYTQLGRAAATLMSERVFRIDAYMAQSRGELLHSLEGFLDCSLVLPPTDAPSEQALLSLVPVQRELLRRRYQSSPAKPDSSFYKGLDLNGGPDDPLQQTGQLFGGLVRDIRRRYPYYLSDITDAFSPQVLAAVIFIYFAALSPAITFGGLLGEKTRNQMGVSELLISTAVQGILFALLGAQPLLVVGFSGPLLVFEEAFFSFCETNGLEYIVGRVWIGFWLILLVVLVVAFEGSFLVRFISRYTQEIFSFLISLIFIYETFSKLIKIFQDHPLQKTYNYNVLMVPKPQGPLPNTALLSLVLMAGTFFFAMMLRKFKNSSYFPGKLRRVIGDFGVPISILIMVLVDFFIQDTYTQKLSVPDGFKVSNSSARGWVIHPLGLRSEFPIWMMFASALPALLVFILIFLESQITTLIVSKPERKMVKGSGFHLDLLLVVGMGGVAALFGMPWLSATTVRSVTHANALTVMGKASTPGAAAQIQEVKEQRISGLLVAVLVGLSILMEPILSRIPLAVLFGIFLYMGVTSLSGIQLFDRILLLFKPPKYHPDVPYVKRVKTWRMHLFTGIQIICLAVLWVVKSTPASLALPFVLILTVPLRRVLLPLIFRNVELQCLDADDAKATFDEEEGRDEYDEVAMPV
Assay: 36Cl exchange flux inhibition in red blood cells, Dixon plots
Type: cell-based
Conditions: for Kd: read-out: Average KoI (SE)

[1] = exp 86, pHo 11.6, sucrose, Clo 30 mM
[2] = exp 86, pHo 11.6, sucrose, Clo 200 mM
[3] = exp N223, pHo 7.2, citrate, Clo 1.05 mM
[4] = exp N223, pHo 7.2, citrate, Clo 2.07 mM
[5] = exp N223, pHo 7.2, citrate, Clo 145 mM
[6] = exp N225, pHo 7.2, citrate, Clo 2.07 mM
[7] = exp N225, pHo 7.2, citrate, Clo 4.14 mM
[8] = exp N225, pHo 7.2, citrate, Clo 130 mM

[I-].[K+] [iodide, potassium iodide]
ID50 for iodide in the medium with low Cl- concentration (exp 84, pHo 8.0, 0°C, Hepes, Cli 130 mM, low Clo 0.9 mM): 2.05 mM | ID50 for iodide in the medium with low Cl- concentration (exp 85, pHo 7.2, 0°C, Hepes, Cli 133 mM, low Clo 0.3 mM): 1.80 mM | ID50 for iodide in the medium with low Cl- concentration (exp 86, pHo 11.6, 0°C, CAPS, Cli 295 mM, low Clo 30 mM): 63.3 mM | DS·Clo (Dixon slope times [Clo]) [1]: 0.2098 | Dixon slope (DS) for Io inhibition of Cl- exchange [1]: 0.00699 | High/low: DS·Clo at the highest [Clo] divided by that at the given [Clo] [1]: 1.12 | DS·Clo (Dixon slope times [Clo]) [2]: 0.2354 | Dixon slope (DS) for Io inhibition of Cl- exchange [2]: 0.00118 | ID50 for iodide in the medium with low Cl- concentration (exp 86, pHo 12.4, 0°C, CAPS, Cli 295 mM, low Clo 30 mM): 88.5 mM | DS·Clo (Dixon slope times [Clo]) (exp 86, pHo 12.4, Clo 30 mM): 0.3617 | Dixon slope (DS) for Io inhibition of Cl- exchange (exp 86, pHo 12.4, Clo 30 mM): 0.01206 | High/low: DS·Clo at the highest [Clo] divided by that at the given [Clo] (exp 86, pHo 12.4, Clo 30 mM): 1.08 | DS·Clo (Dixon slope times [Clo]) (exp 86, pHo 12.4, Clo 200 mM): 0.3918 | Dixon slope (DS) for Io inhibition of Cl- exchange (exp 86, pHo 12.4, Clo 200 mM): 0.001959 | ID50 for iodide in the medium with low Cl- concentration (exp 87, pHo 11.9, 0°C, CAPS, Cli 294 mM, low Clo 30 mM): 83.8 mM | ID50 for iodide in the medium with low Cl- concentration (exp 87, pHo 12.4, 0°C, CAPS, Cli 294 mM, low Clo 30 mM): 92.5 mM | DS·Clo (Dixon slope times [Clo]) (exp 87, pHo 12.4, Clo 30 mM): 0.3492 | Dixon slope (DS) for Io inhibition of Cl- exchange (exp 87, pHo 12.4, Clo 30 mM): 0.01164 | High/low: DS·Clo at the highest [Clo] divided by that at the given [Clo] (exp 87, pHo 12.4, Clo 30 mM): 0.81 | DS·Clo (Dixon slope times [Clo]) (exp 87, pHo 12.4, Clo 200 mM): 0.2824 | Dixon slope (DS) for Io inhibition of Cl- exchange (exp 87, pHo 12.4, Clo 200 mM): 0.001412 | ID50 for iodide in the medium with low Cl- concentration (exp 89, pHo 11.9, 0°C, CAPS, Cli 304 mM, low Clo 30 mM): 91.8 mM | ID50 for iodide in the medium with low Cl- concentration (exp 89, pHo 12, 0°C, No buffer, Cli 304 mM, low Clo 30 mM): 128.5 mM | DS·Clo (Dixon slope times [Clo]) [3]: 0.0854 | Dixon slope (DS) for Io inhibition of Cl- exchange [3]: 0.081 | High/low: DS·Clo at the highest [Clo] divided by that at the given [Clo] [3]: 3.96 | DS·Clo (Dixon slope times [Clo]) [4]: 0.1048 | Dixon slope (DS) for Io inhibition of Cl- exchange [4]: 0.0506 | High/low: DS·Clo at the highest [Clo] divided by that at the given [Clo] [4]: 3.22 | DS·Clo (Dixon slope times [Clo]) [5]: 0.338 | Dixon slope (DS) for Io inhibition of Cl- exchange [5]: 0.00233 | DS·Clo (Dixon slope times [Clo]) [6]: 0.0724 | Dixon slope (DS) for Io inhibition of Cl- exchange [6]: 0.0349 | High/low: DS·Clo at the highest [Clo] divided by that at the given [Clo] [6]: 3.66 | DS·Clo (Dixon slope times [Clo]) [7]: 0.0907 | Dixon slope (DS) for Io inhibition of Cl- exchange [7]: 0.0219 | High/low: DS·Clo at the highest [Clo] divided by that at the given [Clo] [7]: 2.92 | DS·Clo (Dixon slope times [Clo]) [8]: 0.2652 | Dixon slope (DS) for Io inhibition of Cl- exchange [8]: 0.00204 | 1/R, ratio of dissociation constants alkaline/neutral state (our value): 69 | apparent ID50 for I- as an inhibitor of Cl- exchange (pH 10.6, 1.65 mM [Clo]): 23.6 ± 2.1 mM | y intercept of ID50 for Io vs [Clo] (should give KoI) (pHi and pHo 7.2, 0°C, Cli ~150 mM, media with 5 mM Hepes, Fig. 5): 2.0 ± 0.2 mM | y intercept of Dixon slope for Io inhibition vs 1/[Clo] (pHo 7.2, 25 mM K3citrate plus sucrose replacing Cl-, Fig. 4B): 0.0017 kg Hb·s·mmol-1·mM-1 | y intercept of Dixon slope for Io inhibition vs 1/[Clo] (pHo 7.2, sucrose replacing Clo, Fig. 4A): 0.006 kg Hb·s·mmol-1·mM-1 | Kd (pHo 7.2, 0°C): 0.83 mM | Kd (pHo 8.0, 0°C): 0.45 mM | Kd (pHo 8.5, 0°C): 1.01 mM | Kd (pHo 8.66, 0°C): 1.26 mM | Kd (pHo 9.2, 0°C): 2.6 mM | Kd (pHo 9.9, 0°C): 5.63 mM | Kd (pHo 10, 0°C): 6.48 mM | Kd (pHo 10.6, 0°C): 18.4 mM | Kd (pHo 10.7, 0°C): 16.4 mM | Kd (pHo 11.6, 0°C): 35.8 mM | Kd (pHo 11.9, 0°C): 75.6 mM | Kd (pHo 12.4, 0°C): 73.4 mM | R = K++I/K+I, ratio of I- dissociation constants for neutral and alkaline forms (two-titratable-site fit to KoI data): 0.0145
